{"source": "paper PMC9133015", "about": "(Nature Communications, 2022)", "key": {"DU145 cells": {"tested_on": "DU145 cells", "assay": "Transcriptome-wide RNA-sequencing", "format": "cell-based, human", "conditions": "DU145, YK-2-69 3 µM 48 h vs DMSO"}, "[1]": {"biological_target": "T1, panel of 370 protein kinases (Homo sapiens, UniProt Q13188)", "T1 construct": "purchased Reaction Biology Corporation (assay service)", "T1 sequence (Q13188 whole entry)": "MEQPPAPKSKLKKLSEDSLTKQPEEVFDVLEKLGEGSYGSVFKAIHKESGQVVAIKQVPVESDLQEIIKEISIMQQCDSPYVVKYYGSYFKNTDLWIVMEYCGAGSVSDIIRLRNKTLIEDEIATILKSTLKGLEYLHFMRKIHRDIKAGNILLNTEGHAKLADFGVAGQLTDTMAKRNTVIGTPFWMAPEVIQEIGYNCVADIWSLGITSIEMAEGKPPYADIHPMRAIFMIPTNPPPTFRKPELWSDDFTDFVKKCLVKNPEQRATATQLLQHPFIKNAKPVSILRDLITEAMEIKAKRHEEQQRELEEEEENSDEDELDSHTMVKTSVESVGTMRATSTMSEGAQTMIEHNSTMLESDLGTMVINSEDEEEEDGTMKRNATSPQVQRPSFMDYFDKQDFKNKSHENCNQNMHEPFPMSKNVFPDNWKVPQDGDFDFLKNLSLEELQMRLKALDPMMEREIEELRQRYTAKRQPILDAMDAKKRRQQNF", "assay": "Kinase inhibitor specificity profiling (Reaction Biology Corporation)", "format": "biochemical", "conditions": "2 h, kinase MST2/STK3; read-out: % Enzyme Activity (relative to DMSO controls)"}, "[2]": {"biological_target": "T2, panel of 370 protein kinases (Homo sapiens, UniProt P04626)", "T2 construct": "purchased Reaction Biology Corporation (assay service)", "T2 sequence (P04626 23-1255)": "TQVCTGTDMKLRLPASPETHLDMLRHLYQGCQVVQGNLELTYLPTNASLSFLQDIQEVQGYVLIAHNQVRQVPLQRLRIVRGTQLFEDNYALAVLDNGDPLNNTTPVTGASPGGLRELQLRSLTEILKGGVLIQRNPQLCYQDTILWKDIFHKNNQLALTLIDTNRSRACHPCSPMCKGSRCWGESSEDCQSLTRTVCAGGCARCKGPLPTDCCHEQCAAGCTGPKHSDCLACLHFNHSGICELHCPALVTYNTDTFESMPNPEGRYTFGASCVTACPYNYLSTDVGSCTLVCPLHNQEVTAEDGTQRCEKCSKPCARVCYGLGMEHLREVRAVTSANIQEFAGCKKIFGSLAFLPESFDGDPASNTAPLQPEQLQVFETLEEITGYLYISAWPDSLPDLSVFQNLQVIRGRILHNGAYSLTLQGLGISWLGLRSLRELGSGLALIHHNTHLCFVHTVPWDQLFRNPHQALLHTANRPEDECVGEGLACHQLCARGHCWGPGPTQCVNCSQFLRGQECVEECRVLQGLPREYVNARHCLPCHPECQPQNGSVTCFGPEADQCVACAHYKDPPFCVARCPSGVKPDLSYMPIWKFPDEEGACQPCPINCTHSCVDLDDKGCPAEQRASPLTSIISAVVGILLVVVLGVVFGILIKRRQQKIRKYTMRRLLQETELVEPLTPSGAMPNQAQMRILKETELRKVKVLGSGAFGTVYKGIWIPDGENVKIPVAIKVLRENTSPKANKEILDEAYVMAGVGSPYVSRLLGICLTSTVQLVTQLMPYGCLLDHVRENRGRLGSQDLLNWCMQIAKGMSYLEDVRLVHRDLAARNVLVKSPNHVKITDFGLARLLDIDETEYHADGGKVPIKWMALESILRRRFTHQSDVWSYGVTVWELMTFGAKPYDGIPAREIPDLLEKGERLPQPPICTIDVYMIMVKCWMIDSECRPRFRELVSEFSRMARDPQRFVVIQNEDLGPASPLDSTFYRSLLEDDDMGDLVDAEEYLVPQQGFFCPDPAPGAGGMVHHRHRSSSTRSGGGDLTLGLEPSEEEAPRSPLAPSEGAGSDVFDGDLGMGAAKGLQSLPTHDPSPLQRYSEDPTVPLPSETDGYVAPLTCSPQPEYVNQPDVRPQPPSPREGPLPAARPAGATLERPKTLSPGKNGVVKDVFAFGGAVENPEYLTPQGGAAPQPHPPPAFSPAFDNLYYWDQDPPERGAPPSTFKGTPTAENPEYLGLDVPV", "assay": "Kinase inhibitor specificity profiling (Reaction Biology Corporation)", "format": "biochemical", "conditions": "2 h, kinase ERBB2/HER2; read-out: % Enzyme Activity (relative to DMSO controls)"}, "[3]": {"biological_target": "T3, panel of 370 protein kinases (Homo sapiens, UniProt Q13153)", "T3 construct": "purchased Reaction Biology Corporation (assay service)", "T3 sequence (Q13153 whole entry)": "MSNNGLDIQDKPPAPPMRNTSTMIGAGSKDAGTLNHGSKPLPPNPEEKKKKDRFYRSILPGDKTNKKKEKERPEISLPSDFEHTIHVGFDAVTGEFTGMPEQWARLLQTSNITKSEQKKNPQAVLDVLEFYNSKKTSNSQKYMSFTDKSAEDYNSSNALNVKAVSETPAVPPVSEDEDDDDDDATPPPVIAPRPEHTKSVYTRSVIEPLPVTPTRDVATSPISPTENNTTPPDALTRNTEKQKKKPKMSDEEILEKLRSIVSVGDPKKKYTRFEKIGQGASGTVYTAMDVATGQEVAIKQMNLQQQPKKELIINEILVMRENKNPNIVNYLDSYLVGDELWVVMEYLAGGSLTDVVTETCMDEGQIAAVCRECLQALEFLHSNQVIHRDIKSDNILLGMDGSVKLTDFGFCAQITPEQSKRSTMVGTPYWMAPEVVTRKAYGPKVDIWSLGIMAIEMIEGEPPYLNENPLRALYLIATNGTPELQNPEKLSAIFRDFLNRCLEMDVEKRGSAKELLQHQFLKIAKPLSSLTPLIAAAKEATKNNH", "assay": "Kinase inhibitor specificity profiling (Reaction Biology Corporation)", "format": "biochemical", "conditions": "2 h, kinase PAK1; read-out: % Enzyme Activity (relative to DMSO controls)"}, "[4]": {"biological_target": "T4, panel of 370 protein kinases (Homo sapiens, UniProt Q96NX5)", "T4 construct": "purchased Reaction Biology Corporation (assay service)", "T4 sequence (Q96NX5 whole entry)": "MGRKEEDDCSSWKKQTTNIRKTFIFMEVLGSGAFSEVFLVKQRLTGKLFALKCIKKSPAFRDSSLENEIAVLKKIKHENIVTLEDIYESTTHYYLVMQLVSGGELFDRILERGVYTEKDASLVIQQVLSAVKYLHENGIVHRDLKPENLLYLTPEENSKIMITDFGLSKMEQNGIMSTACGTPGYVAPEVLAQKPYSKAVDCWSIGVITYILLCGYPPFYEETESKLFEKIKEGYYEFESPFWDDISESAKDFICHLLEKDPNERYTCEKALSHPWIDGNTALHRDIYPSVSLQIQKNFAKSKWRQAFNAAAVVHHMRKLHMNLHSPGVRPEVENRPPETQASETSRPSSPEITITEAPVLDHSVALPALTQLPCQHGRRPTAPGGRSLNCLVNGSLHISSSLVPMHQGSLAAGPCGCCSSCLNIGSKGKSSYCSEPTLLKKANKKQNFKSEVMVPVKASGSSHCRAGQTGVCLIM", "assay": "Kinase inhibitor specificity profiling (Reaction Biology Corporation)", "format": "biochemical", "conditions": "2 h, kinase CAMK1g; read-out: % Enzyme Activity (relative to DMSO controls)"}, "Pharmacokinetic profiles": {"assay": "Pharmacokinetic profiles", "format": "in vivo", "conditions": "SD rats"}}, "note": "Values joined by “and” are separate entries in the source; they are usually repeats but may differ in a detail not shown here. Equal values may be shown once. Read-outs that look alike come from different tables or passages of the source.", "data": [{"smiles": "CCN1CCN(C(=O)c2ccc(Nc3ncc(F)c(-c4ccc5nc(N(C)C)sc5c4)n3)nc2)CC1", "note": "[YK-2-69]", "values": [{"measurement": "log2(fc) KLF6 (ENSG00000067082)", "setting": "DU145 cells", "value": -1}, {"measurement": "log2(fc) MT-ND6 (ENSG00000198695)", "setting": "DU145 cells", "value": 1.099}, {"measurement": "log2(fc) PLK2 (ENSG00000145632)", "setting": "DU145 cells", "value": -1.04}, {"measurement": "log2(fc) TAGLN (ENSG00000149591)", "setting": "DU145 cells", "value": -2.064}, {"measurement": "remaining activity at 1 µM", "setting": "[1]", "value": 98.9, "unit": "%"}, {"measurement": "remaining activity at 1 µM", "setting": "[2]", "value": 100, "unit": "%"}, {"measurement": "remaining activity at 1 µM", "setting": "[3]", "value": 89.2, "unit": "%"}, {"measurement": "remaining activity at 1 µM", "setting": "[4]", "value": 56.8, "unit": "%"}, {"measurement": "Con. (individual rats NO.1-3)", "setting": "Pharmacokinetic profiles; IV 1 mg/kg, 0.033 h, 1 mg/kg", "value": "1120 ng/mL and 712 ng/mL"}, {"measurement": "Con. (individual rats NO.1-3)", "setting": "Pharmacokinetic profiles; IV 1 mg/kg, 0.083 h, 1 mg/kg", "value": "959 ng/mL and 574 ng/mL"}, {"measurement": "Con. (individual rats NO.1-3)", "setting": "Pharmacokinetic profiles; IV 1 mg/kg, 0.25 h, 1 mg/kg", "value": "611 ng/mL and 402 ng/mL"}, {"measurement": "Con. (individual rats NO.1-3)", "setting": "Pharmacokinetic profiles; IV 1 mg/kg, 0.5 h, 1 mg/kg", "value": "480 ng/mL and 383 ng/mL"}, {"measurement": "Con. (individual rats NO.1-3)", "setting": "Pharmacokinetic profiles; IV 1 mg/kg, 1 h, 1 mg/kg", "value": "355 ng/mL and 310 ng/mL"}, {"measurement": "Con. (individual rats NO.1-3)", "setting": "Pharmacokinetic profiles; IV 1 mg/kg, 2 h, 1 mg/kg", "value": "199 ng/mL and 175 ng/mL"}, {"measurement": "Con. (individual rats NO.1-3)", "setting": "Pharmacokinetic profiles; IV 1 mg/kg, 4 h, 1 mg/kg", "value": "96.9 ng/mL and 91.7 ng/mL"}, {"measurement": "Con. (individual rats NO.1-3)", "setting": "Pharmacokinetic profiles; IV 1 mg/kg, 6 h, 1 mg/kg", "value": "63.9 ng/mL and 64.4 ng/mL"}, {"measurement": "Con. (individual rats NO.1-3)", "setting": "Pharmacokinetic profiles; IV 1 mg/kg, 8 h, 1 mg/kg", "value": "45.3 ng/mL and 36.2 ng/mL"}, {"measurement": "Con. (individual rats NO.1-3)", "setting": "Pharmacokinetic profiles; IV 1 mg/kg, 12 h, 1 mg/kg", "value": 14.4, "unit": "ng/mL"}, {"measurement": "Con. (individual rats NO.1-3)", "setting": "Pharmacokinetic profiles; PO 10 mg/kg, 0.083 h, 10 mg/kg", "value": "9.74 ng/mL and 9.99 ng/mL"}, {"measurement": "Con. (individual rats NO.1-3)", "setting": "Pharmacokinetic profiles; PO 10 mg/kg, 0.25 h, 10 mg/kg", "value": "82.5 ng/mL and 106 ng/mL"}, {"measurement": "Con. (individual rats NO.1-3)", "setting": "Pharmacokinetic profiles; PO 10 mg/kg, 0.5 h, 10 mg/kg", "value": "228 ng/mL and 221 ng/mL"}, {"measurement": "Con. (individual rats NO.1-3)", "setting": "Pharmacokinetic profiles; PO 10 mg/kg, 1 h, 10 mg/kg", "value": "437 ng/mL and 376 ng/mL"}, {"measurement": "Con. (individual rats NO.1-3)", "setting": "Pharmacokinetic profiles; PO 10 mg/kg, 2 h, 10 mg/kg", "value": "729 ng/mL and 559 ng/mL"}, {"measurement": "Con. (individual rats NO.1-3)", "setting": "Pharmacokinetic profiles; PO 10 mg/kg, 4 h, 10 mg/kg", "value": "695 ng/mL and 609 ng/mL"}, {"measurement": "Con. (individual rats NO.1-3)", "setting": "Pharmacokinetic profiles; PO 10 mg/kg, 6 h, 10 mg/kg", "value": "538 ng/mL and 544 ng/mL"}, {"measurement": "Con. (individual rats NO.1-3)", "setting": "Pharmacokinetic profiles; PO 10 mg/kg, 8 h, 10 mg/kg", "value": "435 ng/mL and 507 ng/mL"}, {"measurement": "Con. (individual rats NO.1-3)", "setting": "Pharmacokinetic profiles; PO 10 mg/kg, 12 h, 10 mg/kg", "value": "220 ng/mL and 279 ng/mL"}, {"measurement": "Con. (individual rats NO.1-3)", "setting": "Pharmacokinetic profiles; PO 10 mg/kg, 24 h, 10 mg/kg", "value": "38.4 ng/mL and 66 ng/mL"}, {"measurement": "concentration at 0.033 h", "setting": "Pharmacokinetic profiles; SD, rat, serum, iv, 1 mg/kg, IV 1 mg/kg, 0.033 h, read-out: Con. (individual rats NO.1-3)", "value": 1090, "unit": "ng/mL"}, {"measurement": "concentration at 2 h", "setting": "Pharmacokinetic profiles; SD, rat, serum, iv, 1 mg/kg, IV 1 mg/kg, 2 h, read-out: Con. (individual rats NO.1-3)", "value": 209, "unit": "ng/mL"}, {"measurement": "concentration at 2 h", "setting": "Pharmacokinetic profiles; SD, rat, serum, iv, 1 mg/kg, IV 1 mg/kg, 2 h, read-out: Con. Mean", "value": 194, "unit": "ng/mL"}, {"measurement": "concentration at 4 h", "setting": "Pharmacokinetic profiles; SD, rat, serum, iv, 1 mg/kg, IV 1 mg/kg, 4 h, read-out: Con. (individual rats NO.1-3)", "value": 97, "unit": "ng/mL"}, {"measurement": "concentration at 4 h", "setting": "Pharmacokinetic profiles; SD, rat, serum, iv, 1 mg/kg, IV 1 mg/kg, 4 h, read-out: Con. Mean", "value": 95.2, "unit": "ng/mL"}, {"measurement": "concentration at 6 h", "setting": "Pharmacokinetic profiles; SD, rat, serum, iv, 1 mg/kg, IV 1 mg/kg, 6 h, read-out: Con. (individual rats NO.1-3)", "value": 57.8, "unit": "ng/mL"}, {"measurement": "concentration at 6 h", "setting": "Pharmacokinetic profiles; SD, rat, serum, iv, 1 mg/kg, IV 1 mg/kg, 6 h, read-out: Con. Mean", "value": 62, "unit": "ng/mL"}, {"measurement": "concentration at 8 h", "setting": "Pharmacokinetic profiles; SD, rat, serum, iv, 1 mg/kg, IV 1 mg/kg, 8 h, read-out: Con. (individual rats NO.1-3)", "value": 43, "unit": "ng/mL"}, {"measurement": "concentration at 8 h", "setting": "Pharmacokinetic profiles; SD, rat, serum, iv, 1 mg/kg, IV 1 mg/kg, 8 h, read-out: Con. Mean", "value": 41.5, "unit": "ng/mL"}, {"measurement": "concentration at 12 h", "setting": "Pharmacokinetic profiles; SD, rat, serum, iv, 1 mg/kg, IV 1 mg/kg, 12 h, read-out: Con. (individual rats NO.1-3)", "value": 16.4, "unit": "ng/mL"}, {"measurement": "concentration at 12 h", "setting": "Pharmacokinetic profiles; SD, rat, serum, iv, 1 mg/kg, IV 1 mg/kg, 12 h, read-out: Con. Mean", "value": 16.9, "unit": "ng/mL"}, {"measurement": "concentration at 0.083 h", "setting": "Pharmacokinetic profiles; SD, rat, serum, po, 10 mg/kg, PO 10 mg/kg, 0.083 h, read-out: Con. (individual rats NO.1-3)", "value": 9.72, "unit": "ng/mL"}, {"measurement": "concentration at 0.083 h", "setting": "Pharmacokinetic profiles; SD, rat, serum, po, 10 mg/kg, PO 10 mg/kg, 0.083 h, read-out: Con. Mean", "value": 9.82, "unit": "ng/mL"}, {"measurement": "concentration at 0.25 h", "setting": "Pharmacokinetic profiles; SD, rat, serum, po, 10 mg/kg, PO 10 mg/kg, 0.25 h, read-out: Con. (individual rats NO.1-3)", "value": 90.7, "unit": "ng/mL"}, {"measurement": "concentration at 0.25 h", "setting": "Pharmacokinetic profiles; SD, rat, serum, po, 10 mg/kg, PO 10 mg/kg, 0.25 h, read-out: Con. Mean", "value": 93.1, "unit": "ng/mL"}, {"measurement": "concentration at 0.5 h", "setting": "Pharmacokinetic profiles; SD, rat, serum, po, 10 mg/kg, PO 10 mg/kg, 0.5 h, read-out: Con. (individual rats NO.1-3)", "value": 210, "unit": "ng/mL"}, {"measurement": "concentration at 0.5 h", "setting": "Pharmacokinetic profiles; SD, rat, serum, po, 10 mg/kg, PO 10 mg/kg, 0.5 h, read-out: Con. Mean", "value": 220, "unit": "ng/mL"}, {"measurement": "concentration at 1 h", "setting": "Pharmacokinetic profiles; SD, rat, serum, po, 10 mg/kg, PO 10 mg/kg, 1 h, read-out: Con. (individual rats NO.1-3)", "value": 386, "unit": "ng/mL"}, {"measurement": "concentration at 1 h", "setting": "Pharmacokinetic profiles; SD, rat, serum, po, 10 mg/kg, PO 10 mg/kg, 1 h, read-out: Con. Mean", "value": 400, "unit": "ng/mL"}, {"measurement": "concentration at 2 h", "setting": "Pharmacokinetic profiles; SD, rat, serum, po, 10 mg/kg, PO 10 mg/kg, 2 h, read-out: Con. (individual rats NO.1-3)", "value": 600, "unit": "ng/mL"}, {"measurement": "concentration at 2 h", "setting": "Pharmacokinetic profiles; SD, rat, serum, po, 10 mg/kg, PO 10 mg/kg, 2 h, read-out: Con. Mean", "value": 629, "unit": "ng/mL"}]}]}
